≈ marks a conversion by molar mass, not a printed value. Read-outs that look alike come from different tables or passages of the source. Ends that are not written are not given here.
How the values were obtained:
[1] = test system: Staphylococcus aureus ATCC 6538P; settings: for MIC S. aur.: ATCC 6538
[2] = test system: Enterococcus faecalis ATCC 29212
[3] = test system: Staphylococcus aureus ATCC 6538P; settings: for MBC/MIC: Table 2, Staphylococcus aureus ATCC 6538P; for MBC: ATCC 6538
[4] = test system: Staphylococcus aureus ATCC 6538P; assay: microbe, parasite or virus in culture; settings: ATCC6538P
[5] = test system: Staphylococcus aureus ATCC 6538P; assay: microbe, parasite or virus in culture; settings: ATCC6538P; remark: listed apart in the source
[6] = test system: Salmonella typhimurium ATCC 14028; assay: MIC, broth microdilution; assay type: cell-based; settings: Table 1; broth microdilution, Nutrient Broth 0.5×, overnight 37 °C; minimum of three independent experiments
Experimental: MIC values were determined on Gram-positive and Gram-negative bacteria by the broth microdilution method for antimicrobial peptides previously described [33, 89] with minor modifications.
Bacterial strains were grown in Luria-Bertani (LB) medium overnight at 37 °C and then diluted in Nutrient Broth at a final concentration of ~5 × 10^5 CFU/mL per well. Twofold serial dilutions of peptides were carried out in the test wells to obtain concentrations ranging from 50 μM to 0.05 μM. Plates were incubated overnight at 37 °C.
MIC value was defined as the lowest concentration at which growth was inhibited. Three independent experiments were performed for each MIC value.

[7] = test system: Escherichia coli ATCC 25922
[8] = test system: Klebsiella pneumonia ATCC 700603; settings: ATCC 700603
[9] = test system: Acinetobacter baumanii ATCC 17878
[10] = test system: Salmonella enteriditis 706 RIVM
[11] = test system: Pseudomonas aeruginosa PAO1; settings: PAO1
[12] = test system: Pseudomonas aeruginosa PA14
[13] = test system: Pseudomonas aeruginosa RP73 (clinical isolate)
P. aeruginosa PAO1 = settings: PAO1, 16 h
Experimental: Plates were incubated 16 h at 37 °C. FIC index was calculated as follows: FICA + FICB, where FICA = MIC of drug A in combination/MIC of drug A alone, and FICB = MIC of drug B in combination/MIC of drug B alone.

[14] = assay type: physicochemical
Excerpt: The six peptides were produced in the recombinant form by using a previously described strategy that exploit the frog protein onconase (ONC) as a carrier to drive the peptide to inclusion bodies. The fusion proteins were expressed in Escherichia coli strain BL21DE3, using the pET22b(+) vector and named: ONC-DCless-H6-(P)FIBα-GVV27, ONC-DCless-H6-(P)FIBα-SFR22, ONC-DCless-H6-(P)FIBβ-GVV28, ONC-DCless-H6-(P)FIBβ-NWK23, ONC-DCless-H6-(P)FIBγ-GII30, ONC-DCless-H6-(P)FIBγ-TWK25 (nucleotide and amino acid sequences are reported in Supplementary Figure S1). […] Peptides were released by hydrolysis of an acidic labile “Asp-Pro” sequence leading to recombinant peptides endowed with an additional Pro residue at the N-terminus. Thus, the recombinant forms of these peptides are herein named (P)FIBα-GVV27, (P)FIBα-SFR22, (P)FIBβ-GVV28, (P)FIBβ-NWK23, (P)FIBγ-GII30, (P)FIBγ-TWK25. Hydrolysis efficiencies of 95% were estimated for all the recombinant proteins (Supplementary Figure S3). To purify the recombinant peptides from the hydrolysis mixtures, the carrier and the uncleaved fusion protein were selectively precipitated by increasing the pH to 7 exploiting the fact that ONC is insoluble at pH higher than 5, whereas most AMPs are soluble also at neutral pH. […] Therefore, purification of (P)FIBα-SFR22, (P)FIBα-GVV27, (P)FIBβ-NWK23 and (P)FIBγ-TWK25 was first performed by selective precipitation, to remove the carrier and the uncleaved fusion protein, followed by Reverse Phase High-Performance Liquid Chromatography (RP-HPLC) on a C18 column, whereas purification of (P)FIBβ-GVV28 and (P)FIBγ-GII30 was performed directly by RP-HPLC omitting the selective precipitation step. Final yields of all recombinant peptides ranged from approximately 6 to 12 mg per liter of LB culture. Peptide purity, as determined by RP-HPLC, typically varied between 95% and 99% (Supplementary Figure S4).
Peptides (P)FIBα-GVV27, (P)FIBα-SFR22, (P)FIBβ-NWK23 and (P)FIBγ-TWK25 were separated from the carrier and the uncleaved fusion proteins as previously described. The hydrolysis mixture was neutralized to pH 7–7.2 by adding 1 M NH3 and incubated for 1 h at 25 °C under nitrogen atmosphere in a water bath. […] Supernatant and insoluble fraction were analyzed by SDS-PAGE. Concentration of the peptide into the soluble fraction was determined by spectrophotometric analyses using extinction coefficients (Supplementary Table S1) calculated by the ProtParam tool. After the selective precipitation step, purification of the peptide was performed by RP-HPLC. The linear gradients used are listed in Supplementary Table S2. Purification of (P)FIBβ-GVV28 and (P)FIBγ-GII30 was performed directly by RP-HPLC, omitting the selective precipitation step. Purified peptides were lyophilized and dissolved in deionized water. Samples were stored at −80 °C under nitrogen atmosphere. Purity of peptides was evaluated by RP-HPLC on Europa Protein 300 C18 column (5 μm, 25 × 1) using the linear gradients listed in Supplementary Table S2. The identity of the peptides was confirmed by mass spectrometry.

[15] = test system: Pseudomonas aeruginosa PAO1; settings: for MBC: PAO1; for MBC/MIC: Table 2, Pseudomonas aeruginosa PAO1
HCoV-229E = settings: Vero cells; for antiviral activity against HCoV-229E: co-treatment assay, from 50 μM peptide
HSV-1 = settings: Vero cells
[16] = test system: P. aeruginosa PAO1 biofilm; assay: Antibiofilm attachment assay, confocal microscopy; settings: peptide 20 µM added with bacteria, stained after 4 h, Live/Dead BacLight, three independent experiments, t-test vs control
[17] = test system: P. aeruginosa PAO1 biofilm; assay: Antibiofilm detachment assay, confocal microscopy; settings: peptide 20 µM on 24 h pre-formed biofilm, further 24 h, Live/Dead BacLight, three independent experiments
Sheep Red Blood Cells [18] = test system: Sheep Red Blood Cells
Experimental: (§1) To assess the safety profile of the FIB-derived peptides, their hemolytic activity was evaluated by measuring the release of hemoglobin from sheep red blood cells after 1-h incubation with increasing peptide concentrations.
(§2) Briefly, Sheep Red Blood Cells were diluted in PBS 1× to reach a final concentration of 2%. Aliquots of diluted erythrocytes (100 μL) were added to each peptide solution (0–100 μM; 100 μL) in 96-well microtiter plates, and the mixture was incubated for 30 min under shaking (3000 rpm) at 37 °C. Following the incubation, a 3 min centrifugation at 4 °C was performed, and 50 µL of the supernatant from each sample were transferred to a 96 well plate. […] Hemolysis percentage was calculated by comparing samples to controls containing PBS (negative control) and 1% SDS (v/v) in PBS solution (positive control, inducing complete lysis). Hemolysis%=(Abs405 nm peptide−Abs405 nm negative control)/(Abs405 nm positive control−Abs405 nm negative control)×100.

Sheep Red Blood Cells [19] = assay: Hemolysis assay; settings: read-out: IC50 (concentration required to induce 50% hemolysis), peptide 0.78–100 µM, 37 °C, absorbance 405 nm, 1% SDS positive control, triplicate
Experimental: as §1, §2

[20] = Table 1, control antibiotic, twofold dilutions from 64 µg/mL
[21] = Table 1, broth microdilution, Nutrient Broth 0.5×, ~5 × 10^5 CFU/mL, overnight 37 °C, minimum of three independent experiments
[22] = Table 1, broth microdilution, Nutrient Broth 0.5×, overnight 37 °C, minimum of three independent experiments
[23] = peptide 1 h before infection or 1 h after infection

## CN[C@H](CC(C)C)C(=O)N[C@H]1C(=O)N[C@@H](CC(N)=O)C(=O)N[C@H]2C(=O)N[C@H]3C(=O)N[C@H](C(=O)N[C@H](C(=O)O)c4cc(O)cc(O)c4-c4cc3ccc4O)[C@H](O)c3ccc(c(Cl)c3)Oc3cc2cc(c3O[C@@H]2O[C@H](CO)[C@@H](O)[C@H](O)[C@H]2O[C@H]2C[C@](C)(N)[C@H](O)[C@H](C)O2)Oc2ccc(cc2Cl)[C@H]1O [Vancomycin, reference compound]
[1]; [20]
  MIC S. aur. (antibiotics): 0.5 µg/mL (≈ 0.345 µM)
[2]; [20]
  MIC E. fae. (antibiotics): 2 µg/mL (≈ 1.38 µM)
[3]
  MBC/MIC: 1
[4]
  MIC: 0.5 µg/mL (≈ 0.345 µM)
[5]
  MBC: 0.5 µg/mL (≈ 0.345 µM)

## GIIWATWKTRWYSMKKTTMKIIPFNRLTIG [FIBγ-GII30]
[6]
  MIC S. typ.: 6.25 µM
[7]; [21]
  MIC E. coli: 6.25 µM
[8]
  MIC K. pne.: 12.5 µM
[9]; [22]
  MIC A. bau.: 6.25 µM
[10]
  MIC S. ent.: 12.5 µM
[11]
  MIC PAO1: 6.25 µM
[12]; [22]
  MIC PA14: 6.25 µM
[13]; RP73 (clinical isolate)
  MIC RP73: 3.12 µM
[1]
  MIC S. aur.: 6.25 µM
[2]; [22]
  MIC E. fae.: 6.25 µM
P. aeruginosa PAO1
  FICI of peptide/tobramycin combinations: 0.5–0.53

## H-PGVVWMNWKGSWYSMRKMSMKIRPFFPQQ [(P)FIBβ-GVV28]
[6]
  MIC S. typ.: 12.5 µM
[14]
  solubility / aggregation at pH 7: particularly prone to aggregation and precipitation
[7]; ATCC 25922
  MIC E. coli: 6.25 µM
[8]
  MIC K. pne.: 25 µM
[9]; ATCC 17878
  MIC A. bau.: 6.25 µM
[10]; [22]
  MIC S. ent.: 12.5 µM
[11]
  MIC PAO1: 6.25 µM
[12]; PA14
  MIC PA14: 6.25 µM
[13]; RP73 (clinical isolate)
  MIC RP73: 6.25 µM
[1]
  MIC S. aur.: 3.12 µM
[2]; ATCC 29212
  MIC E. fae.: 6.25 µM
[15]
  MBC: 6.25 µM
  MBC/MIC: 1
[3]
  MBC: 3.12 µM
  MBC/MIC: 1
HCoV-229E; [23]
  antiviral activity against HCoV-229E in cell pre-treatment and post-infection treatment: appreciable antiviral activity
HCoV-229E
  antiviral activity against HCoV-229E: strong antiviral activity
HSV-1; [23]
  antiviral activity against HSV-1 in cell pre-treatment and post-infection treatment: appreciable antiviral activity
[16]
  fluorescence signal of SYTO 9 (live cells), attachment assay: significantly reduced
[17]
  SYTO 9 / PI signal, detachment assay: significantly reducing the SYTO 9 signal

## H-PSFRGADYSLRAVRMKIRPLVTQ [(P)FIBα-SFR22]
[6]
  MIC S. typ.: 25 µM
[14]
  solubility / aggregation at pH 7: soluble at pH 7
[7]; ATCC 25922
  MIC E. coli: 25 µM
[8]
  MIC K. pne.: >50 µM
[9]; ATCC 17878
  MIC A. bau.: 25 µM
[10]
  MIC S. ent.: >50 µM
[11]
  MIC PAO1: 12.5 µM
[12]; PA14
  MIC PA14: 12.5 µM
[13]; RP73 (clinical isolate)
  MIC RP73: 6.25 µM
[1]
  MIC S. aur.: 12.5 µM
[2]; ATCC 29212
  MIC E. fae.: 6.25 µM
[15]
  MBC: 12.5 µM
  MBC/MIC: 1
[3]
  MBC: 12.5 µM
  MBC/MIC: 1
Sheep Red Blood Cells [18]
  release of hemoglobin at 100 µM: limited release of hemoglobin
HSV-1; co-treatment assay, from 50 μM peptide
  antiviral activity against HSV-1: no significant effect
Sheep Red Blood Cells [19]
  IC50: > 100 µM
[16]
  fluorescence signal of SYTO 9 (live cells), attachment assay: did not cause any reduction

## H-PTWKTRWYSMKKTTMKIIPFNRLTIG [(P)FIBγ-TWK25]
[6]
  MIC S. typ.: 3.12 µM
[14]
  solubility / aggregation at pH 7: soluble at pH 7
[7]; [21]
  MIC E. coli: 3.12 µM
[8]
  MIC K. pne.: 6.25 µM
[9]; [22]
  MIC A. bau.: 3.12 µM
[10]; [22]
  MIC S. ent.: 3.12 µM
[11]
  MIC PAO1: 3.12 µM
[12]; [22]
  MIC PA14: 3.12 µM
[13]; [22]
  MIC RP73: 3.12 µM
[1]
  MIC S. aur.: 1.56 µM
[2]; [22]
  MIC E. fae.: 3.12 µM
[15]
  MBC: 3.12 µM
  MBC/MIC: 1
[3]
  MBC: 1.56 µM
  MBC/MIC: 1
Sheep Red Blood Cells [18]
  release of hemoglobin at 100 µM: limited release of hemoglobin
HCoV-229E
  antiviral activity against HCoV-229E: absence of efficacy
Sheep Red Blood Cells [19]
  IC50: ~100 µM
[16]
  fluorescence signal of SYTO 9 (live cells), attachment assay: significantly reduced
[17]
  SYTO 9 / PI signal, detachment assay: significantly reducing the SYTO 9 signal

Source: PMC12469503, “Exploring the Antimicrobial and Antiviral Properties of Cryptic Peptides from Human Fibrinogen” (International Journal of Molecular Sciences, 2025)
